From patent publication US20090203661A1, “Betulinic acid, derivatives and analogs thereof and uses therefor” (priority 2006, published 2009)

Experiments:
[1] = tested on: 3T3-L1 adipocytes; assay: 3T3-L1 differentiation and Oil Red O staining; format: cell-based; details: 0.25 μM
Description: 3T3-L1 preadipocytes were cultured on poly-lysine-coated coverslips with DMEM and 10% FBS at 5% CO2 in 24-well plates. At 2 days post-confluence, cells were incubated with fresh media supplemented with 3-isobutyl-1-methylxanthine (0.5 mM), dexamethasone (1 μM), insulin (1.7 μM), and indicated compounds (0.25 μM). After 48 hr, cells were changed to fresh media and treated with DMSO or indicated compounds for 5 days. Cells without any treatment for the entire 7 days were used as control. The cells were then fixed with 10% formalin. Fixed cells were washed with 60% isopropanol and stained with filtered 60% Oil Red O in deionized water. After staining, cells were washed with water and photographed.

[2] = tested on: p21 promoter; assay: Chromatin immunoprecipitation (ChIP) assay, p21 promoter, Panc-28 cells; format: cell-based, human; details: 5 μM, 1 or 2 hr
Description: Panc-28 cells were treated with the different compounds as indicated for 24 hr and whole cell lysates were obtained and analyzed by immunoblots. […] Cells were transfected with the various constructs, treated with DMSO, BA, CN-BA, CN-BA-Me alone or in combination with T007, and luciferase activity determined. Results of all transactivation studies in this Figure are presented as means±SE for at least three separate determinations for each treatment group. Significant (p<0.05) induction compared to solvent (DMSO) control (*) and inhibition by cotreatment with T007 (**) are indicated. FIGS. 10D-10F show chromatin immunoprecipitation assays. Primers designed for the proximal region of the p21 promoter (FIG. 10D) were used for a ChIP assay in Panc-28 cells (FIG. 10E) treated with DMSO, 5 μM BA, 5 μM CN-BA, and 5 μM CN-BA-Me for 1 or 2 hr. Analysis of interactions of Sp1 and PPARγ with the p21 promoter were carried out in the ChIP assay as described. The ChIP assay was also used to examine binding of TFIIB to the GAPDH promoter (positive control) (FIG. 10F) and to exon 1 of CNAP1 (negative control).
The ligand-dependent recruitment of PPARγ to the p21 promoter by CN-BA and CN-BA-Me was examined using a ChIP assay of Panc-28 cells treated with the betulinic acid, CN-BA and CN-BA-Me for 1 or 2 hr. […] This is consistent with receptor-independent activation of p21 by betulinic acid and the mechanism of this response is currently being investigated. As a control for this experiment, transcription factor TFIIb bound to the proximal region of the GAPDH gene promoter but not to exon-1 of the CNAP1 gene.

[3] = tested on: HT-29 cells; assay: Caveolin-1 expression (Western blot) in HT-29 cells; format: cell-based, human; details: for caveolin-1 induction: HT-29, 72 hr; for effect of T007 on induced caveolin-1 response: HT-29, cotreatment with T007
Description: SW480, HT-29, HCT-15 and Panc-28 (3×10^5) colon cancer cells were seeded in 6-well tissue culture plates in DMEM/Ham's F-12 medium containing 2.5% charcoal-stripped FBS. Protein is extracted from the cells treated either with vehicle or indicated compounds suspended for 24 hr except for caveolin-1 protein which was done for 72 hr. Samples were extracted in high salt buffer [50 mmol/L HEPES, 500 mmol/L NaCl, 1.5 mmol/L MgCl2, 1 mmol/L EGTA, 10% glycerol, and 1% Triton X-100 (pH 7.5), and 5 μL/mL protease inhibitor cocktail (Sigma-Aldrich)]. Samples were incubated at 100° C. for 2 min, separated on either 10% or 12% SDS-PAGE gels and then transferred to polyvinylidene difluoride membrane (PVDF; Bio-Rad, Hercules, Calif.). The PVDF membrane was blocked in 5% TBST-Blotto (10 mM Tris HCl, 150 mM NaCl, pH 8.0, 0.05% Triton X-100, and 5% nonfat dry milk) for about 30 min and was then incubated in fresh 5% TBST-Blotto with 1:1000 for caveolin-1 (Santa Cruz Biotechnology, Santa Cruz, Calif.), 1:1000 for p21 (BD Pharmingen, Frank lakes, NJ) and 1:10000 for β-actin (Sigma) primary antibody overnight with gentle shaking at 4° C. After washing with TBST for 10 min, the membrane was incubated with respective secondary antibody (1:5000) (Santa cruz, Calif.) in 5% TBST-Blotto for 3 hr. The membrane is then washed with TBST for 10 min, incubated with chemiluminiscence reagent from Perkin Elmer for one min and then exposed to Kodak X-OMAT AR autoradiography film (Eastman Kodak, Rochester, N.Y.).

[4] = tested on: PPARγ-GAL4 chimera; assay: PPARγ-GAL4 chimera activation (FIG. 13C); format: cell-based

Structure (SMILES) | Oil Red O staining (fat droplets) [1] | Sp1 binding to p21 promoter [2] | recruitment of PPARγ to proximal GC-rich region of p21 promoter [2] | caveolin-1 induction [3] | effect of T007 on induced caveolin-1 response [3] | activation of PPARγ-GAL4 chimera [4]
COC(=O)C12CCC(C(C)C)C1C1CCC3C4(C)C=C(C#N)C(=O)C(C)(C)C4CCC3(C)C1(C)CC2 (stereo not drawn) [CN-BA-Me, Methyl 2-cyano-lup-1-en-3-oxo-20-oate] | induce Oil Red O staining | enhanced binding of Sp1 | recruited PPARγ | induce caveolin-1 | inhibition of the induced caveolin-1 response | 
CC(C)C1CCC2(C(=O)O)CCC3(C)C(CCC4C5(C)C=C(C#N)C(=O)C(C)(C)C5CCC43C)C12 (stereo not drawn) [CN-BA] | induce Oil Red O staining | enhanced binding of Sp1 | recruited PPARγ | induce caveolin-1 | inhibition of the induced caveolin-1 response | activates
C=C(C)[C@@H]1CC[C@]2(C(=O)O)CC[C@]3(C)[C@H](CC[C@@H]4[C@@]5(C)CC[C@H](O)C(C)(C)[C@@H]5CC[C@]43C)[C@@H]12 [betulinic acid, Betulinic acid] |  |  |  |  |  | inactive
